Tests used:
[1] = stated as known; cited from earlier work
[2] = Renal excretion and extracellular distribution of beta-oxidation degradation products; assay type: in vivo; conditions: products of beta-oxidation of radio-iodine-labelled phenyl fatty acids
Description: We have now discovered radio-iodine-labelled omega-phenyl fatty acids, particularly p-I123 -omega-phenyl pentadecanoic acid and its use, to image body organs such as the heart and liver. Through the use of these novel agents, the disadvantages associated with the use of omega-iodine fatty acids, e.g., injecting radioactive iodide as an internal standard and making the necessary corrections, can be completely avoided.
On degradation via beta-oxidation of the iodinated phenyl fatty acid of the invention, the radioactive residue produced is not iodide, but rather iodinated benzoic or iodinated phenylacetic acid. […] Tests in mice have proven that the residual activity in the blood is 2% of the injected dose per gram of blood.

## iodophenylacetic acid
[1]
  excretion from the body via the kidneys: rapidly excreted from the body via the kidneys
[2]
  distribution throughout the extracellular fluid: does not occur
  excretion by the kidneys: rapidly and quantitatively excreted by the kidneys
